{
  "source": "patent US20220249525A1",
  "about": "“Fatty Acid Compounds for Prevention and Treatment of Neurodegenerative Disorders” (T OMEGA AS, priority 2019, published 2022)",
  "key": {"[1]": {"system": "HCC827 cells", "assay": "Mitochondria respiration assay (OCR, extracellular flux) in HCC827 cells", "format": "cell-based", "experimental": "(§1) Non-small cell lung cancer cells, HCC827 (ATCC) were cultured in RPMI-1640 Glutamax medium (Sigma-Aldrich St. Louis, Mo., USA), under conventional culture conditions. Media was supplemented with 10% Fetal Bovine Serum (FBS), 1% glutamine and 1% streptomycin/penicillin (Sigma-Aldrich). HeLaNRF1/c4 reporter cells were cultured in Dulbecco's Modified Eagle's Medium (DMEM) supplemented with 10% FBS, 2 mM L-Glutamine, 100 u/ml penicillin/streptomycin (Sigma-Aldrich,). Incubation was done at 37° C. in 5% CO2.\nMitochondria function was analyzed by measuring oxygen consumption rate (OCR) by extracellular flux analysis in a Seahorse XFe96 instrument (Agilent Seahorse XF Technologies). The measurements were performed in DADA basic media without phenol red, supplemented with L-glutamine (2 mM), pyruvate (2 mM), and sodium chloride, NaCl (32 mM) (Sigma-Aldrich). Respiratory rates were measured following sequential additions of glucose (10 mM), oligomycin, carbonyl cyanide m-chlorophenyl hydrazine (CCCP) and a mixture of rotenone (1 μM) and antimycin A (1 μM). Before carrying out the measurements for each cell model, optimizations were done for; cell number, CCCP, and oligomycin concentrations. For the HCC 827 cell model optimal conditions were; 30,000 cells/well, 0.5 μM CCCP, and 3 μM Oligomycin; and in HeLaNRF1/c4 reporter cell model; 20,000 cells/well, 1 μM CCCP and 3 μM Oligomycin. The OCR measured initially (before any additions) represented the rate ‘basal respiration.’ The addition of ATP synthase inhibitor oligomycin provided oxygen consumption independent of ATP production (‘leak activity’). Maximal respiration (also referred to as ‘respiratory capacity’) was measured upon addition of the uncoupler CCCP. […] After the extracellular flux analysis the analysis plates were washed with Phosphate Buffered Saline (PBS) and frozen at −80° C. The BCA assay (Pierce BCA protein assay kit, Thermo Fisher Scientific, Waltham, Mass. USA) was employed to measure the protein content in the wells. To evaluate the effects of the different treatments, the respiratory rates from compound-treated wells were normalized to protein content, and calculated as percentage of the average respiratory rate of the DMSO-treated control wells. All treatments were performed with 6-8 replicate wells."}, "[2]": {"system": "MOLM-13 human acute leukemia cells", "assay": "WST-1 viability of MOLM-13 cells", "format": "cell-based", "conditions": "for Abs450 nm (WST-1 viability): complexed to BSA", "experimental": "MOLM-13 suspension cells were diluted and added to 96-well plates (15.000 cells/well).\nThe modified fatty acids TTA, tr-TTA, TDG (TGH) and tr-TDG (tr-TGH) were complexed to bovine serum albumin (BSA), and 10-fold dilutions of the fatty acids or BSA control were added to the wells in duplicate. Two plates were run in parallel, and WST-1 was added to the cells after 48 (plate 1) and 72 hours (plate 2). Absorbance at 450 nm measured to assess viability of the cells."}, "[3]": {"system": "HeLaNRF1/c4 reporter cells", "assay": "Resazurin conversion assay in HeLaNRF1/c4 reporter cells", "format": "cell-based", "conditions": "test compounds 30 μM and 60 μM, long treatment", "experimental": "as §1\nCell viability/proliferation was determined by the resazurin conversion assay. A total of 4000 cells were seeded in each of the 96-well plates in 100 μl of medium. After 3 hours of incubation, 100 μl of fresh medium with respective concentration of the desired compound or controls were added. Resazurin solution (Sigma-Aldrich) was added (10%, v/v in PBS) after 1 or 3 day treatment, followed by 3 hour incubation at 37° C. and 5% CO2. Resazurin fluorescence (excitation, 540 nm; emission, 590 nm) was measured and measurements were corrected for background signals. […] Relative viability was calculated from percent fluorescence relative to DMSO-treated control wells.\nIn order to investigate if some of the compounds induce metabolic adaptations involving mitochondrial biogenesis, we employed the HeLaNRF1/c4 reporter cells in which activation of the transcription factor NRF1 triggers expression of GFP. Since adaptations of mitochondrial biogenesis are known to require some days to develop, we used a relatively low dosage (30 μM and 60 μM) of the compounds, to allow longer treatment period compared to the previous short term experiments."}, "[4]": {"assay": "4 week high-fat diet study, body weight, adipose tissue, plasma glucose and cholesterol", "format": "in vivo, C57BL/6 mice", "conditions": "mice, N-TTA 750 mg/kg or triple-N-TTA 350 mg/kg body weight, 4 weeks", "experimental": "This animal study was conducted according to the Guidelines for the Care and Use of Experimental Animals, and the protocol was approved by the Norwegian Food Authorities. 7 to 8-weeks old male C57BL/6 mice, were obtained from Janvier Labs. After one week of acclimatization, they were divided into 3 groups of 7 animals. One group was fed a control high-fat (25 w/v) diet while the two remaining groups were fed a high-fat diet supplemented with either N-TTA (750 mg/kg body weight) or triple-N-TTA (350 mg/kg body weight). After 4 weeks of feeding, the mice were anaesthetized with Isofluorane (Forane, Abbot Laboratories Ltd, Illinois, USA) inhalation under fasting conditions, and blood and liver samples were collected. […]\nGlucose and lipids in plasma was measured on the Hitachi 917 system (Roche Diagnostics, GmbH, Mannheim, Germany) using kits from Roche Diagnostics or DiaSys."}},
  "data": [
    {"compound": "CCCCCCCCCCCCCCNCC(=O)O", "note": "[N-TTA, N-tetradecylglycine]", "values": [
      {"measurement": "leak respiration after oligomycin", "setting": "[1]; 100 μM TTA, 200 μM 2-triple TTA, 30 μM TDG", "value": "significantly increased"},
      {"measurement": "basal respiratory rate (OCR)", "setting": "[1]; compared to control", "value": "decreased in a dose-dependent manner"},
      {"measurement": "leak respiration after oligomycin", "setting": "[1]; higher concentrations", "value": "reduced leak respiration"},
      {"measurement": "Abs450 nm (WST-1 viability)", "setting": "[2]; 48 hours, 0.0625 mM", "value": 0.9307},
      {"measurement": "Abs450 nm (WST-1 viability)", "setting": "[2]; 48 hours, 0.125 mM", "value": 0.4765},
      {"measurement": "Abs450 nm (WST-1 viability)", "setting": "[2]; 48 hours, 0.25 mM", "value": 0.5423},
      {"measurement": "Abs450 nm (WST-1 viability)", "setting": "[2]; 48 hours, 0.5 mM", "value": 0.3207},
      {"measurement": "Abs450 nm (WST-1 viability)", "setting": "[2]; 48 hours, 1 mM", "value": 0.257},
      {"measurement": "Abs450 nm (WST-1 viability)", "setting": "[2]; 48 hours, 2 mM", "value": 0.3163},
      {"measurement": "Abs450 nm (WST-1 viability)", "setting": "[2]; 72 hours, 0.03125 mM", "value": 0.4491},
      {"measurement": "Abs450 nm (WST-1 viability)", "setting": "[2]; 72 hours, 0.0625 mM", "value": 0.8073},
      {"measurement": "Abs450 nm (WST-1 viability)", "setting": "[2]; 72 hours, 0.125 mM", "value": 0.4813},
      {"measurement": "Abs450 nm (WST-1 viability)", "setting": "[2]; 72 hours, 0.25 mM", "value": 0.203},
      {"measurement": "Abs450 nm (WST-1 viability)", "setting": "[2]; 72 hours, 0.5 mM", "value": 0.175},
      {"measurement": "Abs450 nm (WST-1 viability)", "setting": "[2]; 72 hours, 1 mM", "value": 0.1893},
      {"measurement": "Abs450 nm (WST-1 viability)", "setting": "[2]; 72 hours, 2 mM", "value": 0.2359},
      {"measurement": "toxicity to leukemic cells", "setting": "[2]; MOLM-13, compared with TTA and tr-TTA", "value": "toxic to leukemic cells at a lower concentration than TTA and tr-TTA"},
      {"measurement": "resazurin conversion", "setting": "[3]", "value": "dose-dependent reduction"},
      {"measurement": "LDL cholesterol (plasma)", "setting": "[4]", "value": "reduced"},
      {"measurement": "body weight gain vs high-fat control diet", "setting": "[4]", "value": "significantly lower"},
      {"measurement": "cholesterol esters (plasma)", "setting": "[4]", "value": "reduced"},
      {"measurement": "epididymal white adipose tissue depot", "setting": "[4]", "value": "reduced in size"},
      {"measurement": "free cholesterol (plasma)", "setting": "[4]", "value": "reduced"},
      {"measurement": "perirenal white adipose tissue depot", "setting": "[4]", "value": "reduced in size"},
      {"measurement": "total cholesterol (plasma)", "setting": "[4]", "value": "reduced"},
      {"measurement": "blood glucose vs high-fat control diet", "setting": "[4]; fasting", "value": "significantly lower"}
    ]}
  ]
}
